This is an account of results in PubChem BioAssay (NCI).

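Each compound was tested at five concentrations against cells in 96-well plates for 48 hours. GI50 marks 50% less growth. Definition used: TGI = concentration required for complete inhibition of growth.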

What all share (assay): inhibition of tumour cell growth, NCI panel, 48 h
For test [1], the system named is CAKI-1 renal.
Test [2] relates to CCRF-CEM leukemia.
Test [3] relates to DU-145 prostate.
Test [4] deals with HOP-92 NSCLC.
Test [5] deals with HS 578T breast.
The test system of test [6] is KM12 colon.
The test system of test [7] is MDA-MB-231 breast.
For test [8], the system named is RXF 393 renal.
Test [9] concerns SK-MEL-28 melanoma.
Test [10] deals with UO-31 renal.

In the case of `COC(=O)c1cc(-c2ccc(OC)c(OC)c2)[nH]c1N/N=C/c1c(Cl)cccc1Cl`, the GI50 was 0.768 µM in [1]; 0.406 µM in [2]; 0.448 µM in test [3]; 0.944 µM in test [4]; 0.523 µM in [5]; 0.4 µM in [6]. Moreover, the GI50 in test [7] was 1.31 µM; in test [8], 0.132 µM; in [9] it was 0.97 µM; in test [10], 0.834 µM. Also, the TGI in test [1] is 7.1 µM; in test [2], above 100 µM; in test [3] it was 1.93 µM; in [4], 5.06 µM; in test [5] it was 11 µM; in test [6], 9.69 µM. Moreover, the TGI amounted to 5.03 µM in test [7], 0.933 µM in test [8], 71.2 µM in [9] and 3.25 µM in test [10].
`O=C(NNS(=O)(=O)c1ccc(Cl)cc1Cl)c1cccnc1Nc1ccc(Cl)cc1`: the GI50 in test [1] was 19.8 µM; in test [2], 6.62 µM; in [3], 41.8 µM; in [4], 14.6 µM; in test [5], 17.8 µM; in [6], 13.8 µM. In addition, the GI50 in [7] is 19 µM; in test [8], 16.9 µM; in [9] it was 35.4 µM; in test [10], 37.2 µM. Also, the TGI in [1] was 58.7 µM; in [2] it was above 100 µM; in test [3] it was above 100 µM; in test [4], 40.7 µM; in test [5], 41.8 µM; in test [6], 28.6 µM. In addition, the TGI in test [7] is 50.7 µM; in test [8], 43.8 µM; in test [9], above 100 µM; in test [10] it was above 100 µM.
As to `COc1ccc(C(=O)/C=C/c2ccc(OCC#N)cc2)cc1`, the TGI in test [1] is 42 µM; in [2], 81 µM; in test [3] it was 81.7 µM; in test [4], 67.4 µM; in [5] it was above 100 µM; in test [6] it was 32.6 µM. The TGI turned out to be 72.5 µM in test [7], 30.7 µM in test [8], 32.9 µM in test [9] and 30.6 µM in [10].
Consider `COc1cc2ncc3c(nc4sccn43)c2cc1OC`, for which the GI50 in [1] was 2.38 µM; in test [2], 46.4 µM; in [3] it was 28 µM; in [4], 15.8 µM; in test [5] it was 22.1 µM; in test [6], 8.38 µM. Also, the GI50 in test [7] was 24.2 µM; in test [8], above 100 µM; in [9], 28.9 µM; in test [10], 33.6 µM. Besides, the TGI in test [1] is 21.2 µM; in [2] it was above 100 µM; in test [3], above 100 µM; in [4], 39 µM; in test [5] it was above 100 µM; in [6], above 100 µM. In addition, the TGI in [7] was 78.3 µM; in test [8], above 100 µM; in test [9], 95 µM; in test [10], above 100 µM.
For the compound `C[C@@H]1Cc2cc(O)ccc2[C@H]2CC[C@]3(C)/C(=C/COCCN(C)C)CC[C@H]3[C@H]12` (tested in a mixture with another compound), the GI50 is 0.213 µM in [1]; 0.159 µM in [2]; 0.142 µM in test [3]; 0.216 µM in test [4]; 0.0822 µM in [5]; 0.309 µM in test [6]. Also, the GI50 in test [7] is 0.833 µM; in [8], 0.105 µM; in test [9] it was 0.456 µM; in test [10] it was 0.221 µM. For the same compound, the TGI in test [1] was 0.578 µM; in [2] it was 0.416 µM; in test [3] it was 0.276 µM; in test [4] it was 0.872 µM; in test [5], 0.436 µM; in test [6] it was 0.895 µM. The TGI in test [7] worked out at 3.15 µM; in [8] it was 0.316 µM; in test [9], 1.46 µM; in [10], 0.514 µM.
For the compound `COc1cc2c(cc1F)C(c1ccccc1Cl)=Nc1c(n[nH]c1C)N2`, the GI50 in test [1] is 0.609 µM; in test [2] it was 0.982 µM; in test [3], 3.46 µM; in [4], 1.34 µM; in test [5], 0.214 µM; in [6], 0.502 µM. Further, the GI50 in test [7] was 2.12 µM; in test [8], 0.242 µM; in test [9], 5.66 µM; in test [10], 0.84 µM. For the same compound, the TGI in test [1] is 14.7 µM; in [2] it was above 100 µM; in test [3], 21 µM; in test [4], 13.5 µM; in test [5], 0.838 µM; in test [6], 15.5 µM. The TGI came out at 16.9 µM in test [7], 1.46 µM in test [8], 20.4 µM in test [9] and 6.25 µM in test [10].
Consider `O=C(CN1N=C(c2ccc(F)cc2)CCC1=O)Nc1nc2ccccc2s1`, for which the GI50 in test [1] is 0.583 µM; in [2] it was 0.249 µM; in [3], above 25.6 µM; in [4], 1.31 µM; in test [5], 6.75 µM; in test [6], above 25.9 µM. The GI50 in test [7] was 1.24 µM; in [8], 5.91 µM; in test [9], above 100 µM; in [10] it was 0.182 µM. In addition, the TGI was 1.76 µM in test [1]; 0.665 µM in [2]; above 100 µM in test [3]; 2.84 µM in [4]; 66 µM in test [5]; above 100 µM in test [6]. The TGI in [7] was 3.47 µM; in [8] it was above 55.9 µM; in test [9], above 100 µM; in [10], 0.405 µM.
